Consider three molecules from patent publication US6573382B2, “Polymorphic forms of 6-[4-(1-cyclohexyl-1H-tetrazol-5-yl)butoxy]-3,4-dihydro-2(1H)-quinolinone” (priority 2001, dated 2003).

A short description of data set [1]: DSC reheating of disturbed (scratched/stressed) sample: solid state phase transformation to Form A. The format is physicochemical. To be noted: DSC heating from 30° C. to approximately 200° C. at 10° C. per minute. The method, then: DSC data were generated using a Mettler-Toledo DSC 821^e (Columbus, Ohio) with a Julabo FT900 intercooler chiller (Julabo Company; Allentown, Pa.). In general, samples were analyzed in a vented, sealed aluminum pan. Because the endothermic peak may vary depending upon the rate of heating and the calibration and precision of the instrument, with the amount of peak variation dependent upon the heating rate used, all thermograms included herein were run under the same, consistent conditions: heating at 10° C. per minute under a nitrogen purge at 40 mL/minute. The resultant sample of Example 1A was disturbed with scratching, which caused the cilostazol sample to undergo a solid state phase transformation at approximately 119° C. followed by an endotherm of melt at approximately 160° C. (Form A) during heating by DSC from 30° C. to approximately 200° C. at 10° C. per minute. When the sample is stressed and reheated (as detailed in Example 2A), the sample undergoes a solid state phase transformation at approximately 147° C. followed by an endotherm of melt at about 160° C. (Form A) during heating by DSC from 30° C. to approximately 200° C. at 10° C. per minute. This disturbance of sample is believed to induce nucleation which preferentially causes Form A of cilostazol to form upon heating.

A short description of data set [2]: DSC thermogram of combined Forms A, B and C (melting points compared, solubility inferred). To be noted: 10° C. per minute, nitrogen purge, FIG. 8. The format is physicochemical. How it is done:
DSC data were generated using a Mettler-Toledo DSC 821^e (Columbus, Ohio) with a Julabo FT900 intercooler chiller (Julabo Company; Allentown, Pa.). In general, samples were analyzed in a vented, sealed aluminum pan. Because the endothermic peak may vary depending upon the rate of heating and the calibration and precision of the instrument, with the amount of peak variation dependent upon the heating rate used, all thermograms included herein were run under the same, consistent conditions: heating at 10° C. per minute under a nitrogen purge at 40 mL/minute.
FIG. 8 illustrates a DSC thermogram for the combination of Form A, Form B and Form C having a second heating cycle with a maximum temperature of about 110° C. with a holding time of about 30 minutes. The peaks in the third heating cycle show a Form A to Form B to Form C peak area ratio of approximately 8:2:1, respectively, with the relative amount of Form A, Form B and Form C further variable on the heat of enthalpy of each polymorphic form.

The nature of data set [3]: stability of the crystalline form. It counts as physicochemical.
Data set [4] is described as follows: bioavailability of the polymorphic form. Conditions: Form A as prepared by the procedures of the '479 patent.
Data set [5] can be described thus: aqueous solubility of the polymorphic form. To be noted: Form A as prepared by the procedures of the '479 patent. The format is physicochemical.

The structures appear in SMILES notation.

`O=C1CCc2cc(OCCCCc3nnnn3C3CCCCC3)ccc2N1` [Form C, 6-[4-(1-cyclohexyl-1H-tetrazol-5-yl)butoxy]-3,4-dihydro-2(1H)-quinolinone]: the “temperature of solid state phase transformation to Form A” value in data set [1] was “approximately 147 °C”. For the same molecule, the “solubility relative to Form A, suggested by lower melting point in DSC” value in data set [2] is reported as “more soluble than Form A”. Also, the “stability of the polymorphic form” value in data set [3] is recorded as “stable”.

As for `O=C1CCc2cc(OCCCCc3nnnn3C3CCCCC3)ccc2N1` [Form B, 6-[4-(1-cyclohexyl-1H-tetrazol-5-yl)butoxy]-3,4-dihydro-2(1H)-quinolinone], in data set [1], the “temperature of solid state phase transformation to Form A” value is “approximately 119 °C”. In addition, the “solubility relative to Form A, suggested by lower melting point in DSC” value in data set [2] is recorded as “more soluble than Form A”. Moreover, the “stability of the polymorphic form” value in data set [3] was “stable”.

Take `O=C1CCc2cc(OCCCCc3nnnn3C3CCCCC3)ccc2N1` [Form A, 6-[4-(1-cyclohexyl-1H-tetrazol-5-yl)butoxy]-3,4-dihydro-2(1H)-quinolinone]: in data set [4], the bioavailability entry is given as “low bioavailability”. The aqueous solubility entry in data set [5] is “low aqueous solubility”.
